According to US20230381142A1, “ANTILEISHMANIAL COMPOUNDS, COMPOSITIONS AND USE THEREOF” (TRUSTEES OF BOSTON UNIVERSITY, priority 2022, published 2023):

test system: L. donovani intracellular amastigotes in B10R cells; test: UCSD L. donovani infection assay (Assay Conditions D); type: cell-based; conditions: B10R cells
Procedure: (§1) Assay Conditions D: B10R cells (CVCL_0155) were seeded at 300 cells/well, and L. donovani WT promastigotes in stationary phase (7th day after passage) were added at 6,000 parasites/well (ratio of 20 parasites/cell). Both cells and parasites were seeded in DMEM High-Glucose medium (Gibco, cat. no. 11995065) containing 5% Fetal Bovine Serum (Sigma-Aldrich, cat. no. F2442) and 1% Penicillin-Streptomycin (Gibco, cat. no. 15140122). Cells and parasites were incubated in the presence of the compounds for 72 h at 37° C. and 5% C02. Plates were then fixed with 4% formaldehyde solution for at least 1 h, then washed with 1×PBS and stained with 5 μg/mL DAPI. Plates were read using an ImageXpress microscope (Molecular Devices) and analyzed by MetaXpress software (Molecular Devices) using a custom module optimized for this assay. […] Compounds were tested in a 10-point 2-fold serial dilution in 3 technical replicates, and 2 biological replicates. After 72 h, plates were fixed and stained with DAPI as described above. Images were acquired on an ImageXpress microscope, and analyzed using the MetaXpress custom module.
as §1, with “Compounds were obtained as 0.2 μmoles of dried film for primary single point screening. Each compound was diluted in DMSO to 10 μM final testing concentration. These compounds were tested in 2 biological replicates. The compounds were pre-spotted onto 384-well assay plates in single concentration.” for “Assay Conditions D:”, “CO2.” for “C02.”, “module. The DRCs were plotted, half-effective concentration (EC50) and half-cytotoxic concentration (CC50) were calculated using GraphPad Prism Software, version 6.05 (GraphPad Software, San Diego, CA).” for “module.”

Row | Structure (SMILES) | L. donovani amastigotes EC75 (μM, B10R cells)
1 | COc1ncccc1C1c2c(CC(C)C)n[nH]c2C(=O)N1c1ncc(Cl)cc1C (centres unmarked) [BUCMD00191] | >10 µM
2 | Cc1ccccc1C1c2c(CC(C)C)n[nH]c2C(=O)N1c1ccc(N2CCN(C)CC2)nc1 (centres unmarked) [BUCMD00721] | 5.0 µM
3 | COc1cccc(C2c3c(CC(C)C)n[nH]c3C(=O)N2c2ccc3ncnn3c2)c1 (centres unmarked) [BUCMD00159] | >10 µM
4 | COc1cc(N2C(=O)c3[nH]nc(CC(C)C)c3C2c2ccc(F)cc2)ccc1Br (centres unmarked) [BUCMD00164] | >10 µM
5 | Cc1ccc(N2C(=O)c3[nH]nc(CC(C)C)c3C2c2ccc(F)cc2)nc1 (centres unmarked) [BUCMD00174] | >10 µM
6 | Cc1ccc(C2c3c(CC(C)C)n[nH]c3C(=O)N2c2ccc3ncnn3c2)cc1 (centres unmarked) [BUCMD00156] | >10 µM
7 | CC(C)Cc1n[nH]c2c1C(C1CCCCC1)N(c1ccc3ncnn3c1)C2=O (centres unmarked) [BUCMD00157] | >10 µM
8 | Cc1ccsc1C1c2c(CC(C)C)n[nH]c2C(=O)N1c1ccn(C)n1 (centres unmarked) [BUCMD00660] | >10 µM
9 | COc1cc(OC)cc(N2C(=O)c3[nH]nc(CC(C)C)c3C2c2cncc(Br)c2)c1 (centres unmarked) [BUCMD00184] | >10 µM
10 | CCn1cc(N2C(=O)c3[nH]nc(CC(C)C)c3C2c2ccccc2Cl)cn1 (centres unmarked) [BUCMD00668] | 5.8 µM
11 | COc1cc(OC)cc(N2C(=O)c3[nH]nc(CC(C)C)c3C2c2ccc(F)cc2)c1 (centres unmarked) [BUCMD00165] | >10 µM
12 | CC(C)Cc1n[nH]c2c1C(c1ccc(F)cc1F)N(c1cncc(F)c1)C2=O (centres unmarked) [BUCMD00698] | 2.3 µM
13 | CCn1cc(N2C(=O)c3[nH]nc(CC(C)C)c3C2c2ccc(F)cc2C)cn1 (centres unmarked) [BUCMD00663] | 4.0 µM
14 | COc1ncc(N2C(=O)c3[nH]nc(CC(C)C)c3C2c2ccccc2Cl)cc1F (centres unmarked) [BUCMD00732] | 1.9 µM
15 | CC(C)Cc1n[nH]c2c1C(c1ccccc1Cl)N(c1ccn(C)n1)C2=O (centres unmarked) [BUCMD00656] | >10 µM
16 | Cc1ccsc1C1c2c(CC(C)C)n[nH]c2C(=O)N1c1cncc(F)c1 (centres unmarked) [BUCMD00702] | 7.3 µM
17 | Cc1ccnc(N2C(=O)c3[nH]nc(CC(C)C)c3C2c2ccc(F)cc2)c1 (centres unmarked) [BUCMD00173] | >10 µM
18 | CC(C)Cc1n[nH]c2c1C(c1cc(C(F)(F)F)ccc1Br)N(c1ccc3ncnn3c1)C2=O (centres unmarked) [BUCMD00161] | >10 µM
19 | Cc1ccccc1C1c2c(CC(C)C)n[nH]c2C(=O)N1c1cncc(F)c1 (centres unmarked) [BUCMD00697] | 2.6 µM
20 | COc1ncccc1C1c2c(CC(C)C)n[nH]c2C(=O)N1c1ncc(Br)cc1C (centres unmarked) [BUCMD00190] | >10 µM

Row | Structure (SMILES) | L. donovani amastigotes EC75 (μM, B10R cells)
21 | CC(C)Cc1n[nH]c2c1C(c1ccccc1Cl)N(c1cncc(F)c1)C2=O (centres unmarked) [BUCMD00696] | >10 µM
22 | COc1cc(N2C(=O)c3[nH]nc(CC(C)C)c3C2c2ccc(F)cc2C)ccn1 (centres unmarked) [BUCMD00186] | >10 µM
23 | Cc1cccc(N2C(=O)c3[nH]nc(CC(C)C)c3C2c2ccc(F)cc2)n1 (centres unmarked) [BUCMD00175] | >10 µM
24 | CC(C)Cc1n[nH]c2c1C(c1ccccc1F)N(c1ccc(C(=O)N3CCCC3)cc1)C2=O (centres unmarked) [BUCMD00715] | >10 µM
25 | COc1cc(N2C(=O)c3[nH]nc(CC(C)C)c3C2c2cc(Br)ccc2F)ccn1 (centres unmarked) [BUCMD00187] | >10 µM
26 | COc1ccc(N2C(=O)c3[nH]nc(CC(C)C)c3C2c2ccc(Br)cc2OC)cn1 (centres unmarked) [BUCMD00176] | >10 µM
27 | CCn1cc(N2C(=O)c3[nH]nc(CC(C)C)c3C2c2ccc(Br)cc2F)cn1 (centres unmarked) [BUCMD00664] | >10 µM
28 | CC(C)Cc1n[nH]c2c1C(c1ccc(F)cc1Br)N(c1ccn(C)n1)C2=O (centres unmarked) [BUCMD00658] | >10 µM
29 | Cc1cc(N2C(=O)c3[nH]nc(CC(C)C)c3C2c2ccc(F)cc2Br)ccn1 (centres unmarked) [BUCMD00643] | 1.2 µM
30 | Cc1cc(N2C(=O)c3[nH]nc(CC(C)C)c3C2c2ccc(Cl)cc2)n(C)n1 (centres unmarked) [BUCMD00193] | >10 µM
31 | CC(C)Cc1n[nH]c2c1C(c1ccc(F)cc1F)N(c1cnn(C(C)C)c1)C2=O (centres unmarked) [BUCMD00678] | >10 µM
32 | Cc1cc(N2C(=O)c3[nH]nc(CC(C)C)c3C2c2ccc(Br)cc2)n(C)n1 (centres unmarked) [BUCMD00192] | >10 µM
33 | Cc1cc(Br)cnc1N1C(=O)c2[nH]nc(CC(C)C)c2C1c1ccc(F)cc1 (centres unmarked) [BUCMD00167] | >10 µM
34 | CCn1cc(N2C(=O)c3[nH]nc(CC(C)C)c3C2c2sccc2C)cn1 (centres unmarked) [BUCMD00672] | 6.9 µM
35 | COc1cccc(N2C(=O)c3[nH]nc(CC(C)C)c3C2c2cncc(Br)c2)c1 (centres unmarked) [BUCMD00185] | >10 µM
36 | COc1cc(N2C(=O)c3[nH]nc(CC(C)C)c3C2c2c(C)nn(C)c2Cl)ccc1Br (centres unmarked) [BUCMD00179] | >10 µM
37 | COc1cc(N2C(=O)c3[nH]nc(CC(C)C)c3C2c2cncc(Br)c2)ccn1 (centres unmarked) [BUCMD00181] | >10 µM
38 | Cc1ccc(N2C(=O)c3[nH]nc(CC(C)C)c3C2c2ccc(F)cc2F)cn1 (centres unmarked) [BUCMD00630] | 7.3 µM
39 | CCc1ccc(C2c3c(CC(C)C)n[nH]c3C(=O)N2c2ccc(F)c(OC)c2)cn1 (centres unmarked) [BUCMD00178] | >10 µM
40 | CC(C)Cc1n[nH]c2c1C(c1ccc(F)c(F)c1)N(c1ccc(C(=O)N3CCCC3)cc1)C2=O (centres unmarked) [BUCMD00716] | >10 µM

Row | Structure (SMILES) | L. donovani amastigotes EC75 (μM, B10R cells)
41 | Cc1cc(F)ccc1C1c2c(CC(C)C)n[nH]c2C(=O)N1c1ccn(C)n1 (centres unmarked) [BUCMD00652] | >10 µM
42 | COc1cc(N2C(=O)c3[nH]nc(CC(C)C)c3C2c2cncc(Br)c2)ccc1F (centres unmarked) [BUCMD00183] | >10 µM
43 | COc1cc(C2c3c(CC(C)C)n[nH]c3C(=O)N2c2cc(C3CC3)[nH]n2)cc(OC)c1Br (centres unmarked) [BUCMD00195] | >10 µM
44 | Cc1ccsc1C1c2c(CC(C)C)n[nH]c2C(=O)N1c1cnn(C(C)C)c1 (centres unmarked) [BUCMD00680] | >10 µM
45 | CC(C)Cc1n[nH]c2c1C(c1ccc(F)cc1)N(c1cc(C(C)C)nn1C)C2=O (centres unmarked) [BUCMD00171] | >10 µM
46 | CC(C)Cc1n[nH]c2c1C(c1ccc(F)cc1)N(c1cncc(Br)c1)C2=O (centres unmarked) [BUCMD00172] | >10 µM
47 | Cc1cc(Cl)cnc1N1C(=O)c2[nH]nc(CC(C)C)c2C1c1ccc(F)cc1 (centres unmarked) [BUCMD00168] | >10 µM
48 | COc1ncc(N2C(=O)c3[nH]nc(CC(C)C)c3C2c2ccc(Cl)cc2F)cc1F (centres unmarked) [BUCMD00731] | >10 µM
49 | COc1ncc(N2C(=O)c3[nH]nc(CC(C)C)c3C2c2ccc(F)cc2F)cc1F (centres unmarked) [BUCMD00734] | 1.5 µM
50 | CCn1cc(N2C(=O)c3[nH]nc(CC(C)C)c3C2c2ccc(F)cc2F)cn1 (centres unmarked) [BUCMD00670] | >10 µM
51 | Cc1cc(F)ccc1C1c2c(CC(C)C)n[nH]c2C(=O)N1c1cncc(F)c1 (centres unmarked) [BUCMD00693] | >10 µM
52 | COc1cc(C2c3c(CC(C)C)n[nH]c3C(=O)N2c2cc(C)nn2C)cc(OC)c1Br (centres unmarked) [BUCMD00194] | >10 µM
53 | CC(C)Cc1n[nH]c2c1C(c1ccc(F)cc1Br)N(c1ccc3ncnn3c1)C2=O (centres unmarked) [BUCMD00160] | >10 µM
54 | Cc1ccc(N2C(=O)c3[nH]nc(CC(C)C)c3C2c2ccc(F)cc2Br)cn1 (centres unmarked) [BUCMD00629] | 1.0 µM
55 | CC(C)Cc1n[nH]c2c1C(c1ccc(F)cc1Cl)N(c1cnn(C(C)C)c1)C2=O (centres unmarked) [BUCMD00674] | 10.0 µM
56 | CC(C)Cc1n[nH]c2c1C(c1cccs1)N(c1ccc3ncnn3c1)C2=O (centres unmarked) [BUCMD00158] | >10 µM
57 | CC(C)Cc1n[nH]c2c1C(c1ccc(Cl)cc1F)N(c1ccn(C)n1)C2=O (centres unmarked) [BUCMD00655] | >10 µM
58 | CC(C)Cc1n[nH]c2c1C(c1ccc(Cl)cc1F)N(c1cnn(C(C)C)c1)C2=O (centres unmarked) [BUCMD00675] | >10 µM

same assay, conditions: B10R cells; footnote d

Row | Structure (SMILES) | L. donovani amastigotes EC75 (B10R cells)
59 | CC(C)Cc1n[nH]c2c1C(c1ccc(Cl)cc1F)N(c1cncc(F)c1)C2=O (centres unmarked) [BUCMD00695] | 0.5 µM
